Source: ChEMBL document CHEMBL1134816, “Synthesis of 7,8-disubstituted benzolactam-V8 and its binding to protein kinase C” (Bioorg Med Chem Lett, 2001)

How the values were obtained:
[1] = target: Protein kinase C alpha type (Homo sapiens, UniProt P17252); experiment: Displacement phorbol 12,13-dibutyrate(PDBU) binding from recombinant Protein kinase C alpha
[2] = target: Protein kinase C delta type (Homo sapiens, UniProt Q05655); experiment: Binding affinity for protein kinase C delta
[3] = target: T1, Protein kinase C epsilon type (Homo sapiens, UniProt Q02156); experiment: Binding affinity for protein kinase C epsilon
T1 sequence (Q02156 whole entry): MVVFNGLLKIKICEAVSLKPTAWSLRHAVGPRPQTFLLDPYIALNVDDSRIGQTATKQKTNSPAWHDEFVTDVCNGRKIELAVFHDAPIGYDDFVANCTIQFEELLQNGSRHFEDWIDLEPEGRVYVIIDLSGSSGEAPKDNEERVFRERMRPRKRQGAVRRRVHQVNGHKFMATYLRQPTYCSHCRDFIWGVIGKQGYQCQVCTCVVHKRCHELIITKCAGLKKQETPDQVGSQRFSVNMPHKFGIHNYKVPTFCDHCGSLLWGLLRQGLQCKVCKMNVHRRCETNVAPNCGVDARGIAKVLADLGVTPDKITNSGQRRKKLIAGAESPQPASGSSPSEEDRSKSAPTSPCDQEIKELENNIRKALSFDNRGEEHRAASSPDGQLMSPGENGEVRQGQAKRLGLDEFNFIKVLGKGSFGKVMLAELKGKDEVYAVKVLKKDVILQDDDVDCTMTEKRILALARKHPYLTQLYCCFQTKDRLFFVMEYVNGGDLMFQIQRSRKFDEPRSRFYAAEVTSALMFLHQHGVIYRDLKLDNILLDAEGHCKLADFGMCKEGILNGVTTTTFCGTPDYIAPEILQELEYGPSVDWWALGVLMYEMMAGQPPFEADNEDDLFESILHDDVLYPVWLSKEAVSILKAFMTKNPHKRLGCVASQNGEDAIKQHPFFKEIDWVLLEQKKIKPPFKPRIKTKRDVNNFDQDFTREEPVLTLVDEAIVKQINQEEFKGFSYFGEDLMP

Sequence of Protein kinase C delta type (Q05655 whole entry): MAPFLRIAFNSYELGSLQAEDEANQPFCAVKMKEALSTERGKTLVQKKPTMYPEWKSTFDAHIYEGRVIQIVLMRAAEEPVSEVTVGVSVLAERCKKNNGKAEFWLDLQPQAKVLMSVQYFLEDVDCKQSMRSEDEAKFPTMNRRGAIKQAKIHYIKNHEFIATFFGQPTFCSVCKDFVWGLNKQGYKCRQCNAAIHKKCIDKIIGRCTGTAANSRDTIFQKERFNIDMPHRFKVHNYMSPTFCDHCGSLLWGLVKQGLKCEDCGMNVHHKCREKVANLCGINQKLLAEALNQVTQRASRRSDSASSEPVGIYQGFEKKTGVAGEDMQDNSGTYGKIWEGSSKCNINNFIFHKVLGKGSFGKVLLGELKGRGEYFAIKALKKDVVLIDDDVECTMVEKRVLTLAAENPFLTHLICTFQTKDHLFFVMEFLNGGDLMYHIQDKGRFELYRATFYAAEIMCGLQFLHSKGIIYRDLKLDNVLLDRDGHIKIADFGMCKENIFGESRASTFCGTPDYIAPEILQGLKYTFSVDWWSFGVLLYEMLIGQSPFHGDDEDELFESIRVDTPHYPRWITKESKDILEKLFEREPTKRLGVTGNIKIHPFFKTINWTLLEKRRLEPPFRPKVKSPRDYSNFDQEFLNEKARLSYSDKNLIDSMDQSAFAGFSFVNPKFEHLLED

`COc1cccc2c1C[C@@H](CO)NC(=O)[C@H](C(C)C)N2C` gave a Ki [1] of 7160 nM.

`CCCCCCCCC#Cc1ccc2c(c1OC)C[C@@H](CO)NC(=O)[C@H](C(C)C)N2C` gave a Ki [2] of 91.1 nM, a Ki [3] of 121 nM and a Ki [1] of 45.6 nM.
